# Data: patent publication US20230117034A1, “PYRAZOLOTRIAZINES” (Bayer Aktiengesellschaft, priority 2019, published 2023)
# Experiments:
# [1] = molecular target: T1, CDK2/CycE (Homo sapiens, UniProt P24941); assay: CDK2/CycE kinase assay (TR-FRET, 2 mM ATP); format: biochemical; settings: 2 mM ATP (high ATP); median; read-out: CDK2/CyclinE, 2 mM ATP (high ATP), IC50 (median)
# T1 construct: purchased ProQinase GmbH (Freiburg, Germany); host or cells: insect cells (Sf9)
# How it was run: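 Biotin-peptide phosphorylation (0.75 µM substrate, 2 mM ATP final, 25 min, 22 °C) by Sf9-expressed GST-CDK2/GST-CycE, after a 15-min compound pre-binding step. Inhibition scaled between enzyme-free (100%) and uninhibited (0%) wells.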
# [2] = system: CAL-120, human breast adenocarcinoma cells; assay: Proliferation assay CAL-120 (crystal violet, 4 days); format: cell-based; settings: Homo sapiens, CAL-120, 96 h, CAL-120 cells, median, read-out: Prolif-CAL-120, IC50-[mol/l] (median)
# How it was run: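 IC50 from a 4-parameter fit of crystal violet absorbance (595 nm), scaled between a day-0 plate (0%) and untreated wells (100%). Cells grown in 10% FCS medium were exposed to test substances at 0.01-10 µmol/L for 4 days, 0.1% DMSO final.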
# [3] = molecular target: T2, CDK12 (nuclear staining in CAL-120 cells) (Homo sapiens, UniProt Q9NYV4); assay: CDK12 nuclear protein level: immunofluorescence/high content analysis (CAL-120); format: cell-based; settings: for DC50: CAL-120 cells, 24 h, immunofluorescence, 50% reduction of nuclear CDK12 staining intensity, median, read-out: CDK12 degradation IF, DC50- [mol/l] (median); for (IC50 CDK12 high ATP) to (Degradation DC50 CDK12) ratio: ratio of IC50 CDK12 high ATP kinase assay to DC50 CDK12 degradation (IF, CAL-120)
# T2 construct: endogenous in cells; host or cells: CAL-120 human breast cancer cells (DSMZ ACC 459)
# How it was run: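 DC50 is the degrader concentration that halves nuclear CDK12 immunofluorescence relative to controls, measured by high-content imaging. CAL-120 cells were exposed to compound for 24 h at 37 °C before PFA fixation, and signal was normalized to DMSO and control wells.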
# T2 sequence (Q9NYV4 whole entry): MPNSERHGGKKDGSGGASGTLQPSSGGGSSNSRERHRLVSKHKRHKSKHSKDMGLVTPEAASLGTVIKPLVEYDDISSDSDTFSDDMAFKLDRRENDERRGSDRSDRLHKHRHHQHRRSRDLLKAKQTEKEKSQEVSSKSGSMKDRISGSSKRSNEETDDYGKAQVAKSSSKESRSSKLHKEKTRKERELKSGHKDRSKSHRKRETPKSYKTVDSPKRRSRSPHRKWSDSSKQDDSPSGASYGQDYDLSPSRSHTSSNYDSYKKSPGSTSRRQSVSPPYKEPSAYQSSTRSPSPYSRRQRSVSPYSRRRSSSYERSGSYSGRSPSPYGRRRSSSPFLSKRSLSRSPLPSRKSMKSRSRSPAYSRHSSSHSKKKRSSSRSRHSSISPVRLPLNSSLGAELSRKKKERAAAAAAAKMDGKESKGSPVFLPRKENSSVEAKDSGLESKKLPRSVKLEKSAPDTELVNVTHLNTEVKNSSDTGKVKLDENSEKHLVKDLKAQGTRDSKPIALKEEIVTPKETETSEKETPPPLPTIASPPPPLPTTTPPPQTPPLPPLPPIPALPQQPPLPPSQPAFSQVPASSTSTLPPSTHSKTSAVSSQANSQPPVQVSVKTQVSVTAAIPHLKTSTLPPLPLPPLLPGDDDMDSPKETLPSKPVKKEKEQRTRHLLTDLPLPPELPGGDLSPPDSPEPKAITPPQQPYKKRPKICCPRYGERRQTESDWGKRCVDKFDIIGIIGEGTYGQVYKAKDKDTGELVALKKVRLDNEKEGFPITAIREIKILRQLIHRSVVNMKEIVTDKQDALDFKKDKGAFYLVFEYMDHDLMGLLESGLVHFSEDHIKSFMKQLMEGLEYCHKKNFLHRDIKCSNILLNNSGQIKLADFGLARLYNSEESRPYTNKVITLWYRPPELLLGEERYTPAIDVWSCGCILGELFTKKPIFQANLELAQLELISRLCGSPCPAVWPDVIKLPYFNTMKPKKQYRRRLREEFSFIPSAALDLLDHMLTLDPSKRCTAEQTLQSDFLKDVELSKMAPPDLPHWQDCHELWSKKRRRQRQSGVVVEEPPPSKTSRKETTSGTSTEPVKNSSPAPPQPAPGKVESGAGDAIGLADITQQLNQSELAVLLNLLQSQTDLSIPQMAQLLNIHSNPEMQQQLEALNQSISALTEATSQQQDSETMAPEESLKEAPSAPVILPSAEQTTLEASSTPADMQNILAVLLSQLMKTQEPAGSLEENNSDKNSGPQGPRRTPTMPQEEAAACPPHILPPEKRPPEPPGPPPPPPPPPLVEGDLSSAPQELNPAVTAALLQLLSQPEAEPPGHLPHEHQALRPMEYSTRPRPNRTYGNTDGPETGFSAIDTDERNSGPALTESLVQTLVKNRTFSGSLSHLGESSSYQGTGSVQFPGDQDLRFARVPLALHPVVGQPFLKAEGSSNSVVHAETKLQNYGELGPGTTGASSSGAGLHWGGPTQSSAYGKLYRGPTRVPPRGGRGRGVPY
# T2 sequence (O75909 whole entry partner): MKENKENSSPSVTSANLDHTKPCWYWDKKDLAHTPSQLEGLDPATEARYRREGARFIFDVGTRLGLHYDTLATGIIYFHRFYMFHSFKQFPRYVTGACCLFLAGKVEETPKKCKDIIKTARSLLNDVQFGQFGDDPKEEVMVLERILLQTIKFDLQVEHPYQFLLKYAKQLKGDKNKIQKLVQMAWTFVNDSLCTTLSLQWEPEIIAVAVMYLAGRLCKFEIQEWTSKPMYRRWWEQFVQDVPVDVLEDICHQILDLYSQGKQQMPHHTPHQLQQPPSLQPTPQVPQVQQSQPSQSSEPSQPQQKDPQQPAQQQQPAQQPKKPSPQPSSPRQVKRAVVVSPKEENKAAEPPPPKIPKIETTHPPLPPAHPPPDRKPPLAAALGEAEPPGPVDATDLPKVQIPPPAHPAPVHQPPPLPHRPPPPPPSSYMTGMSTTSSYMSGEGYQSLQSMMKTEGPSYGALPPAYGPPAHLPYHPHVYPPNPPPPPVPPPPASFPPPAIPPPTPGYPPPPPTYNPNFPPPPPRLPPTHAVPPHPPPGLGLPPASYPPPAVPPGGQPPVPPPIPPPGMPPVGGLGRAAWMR
Structure (SMILES),IC50 [1] [nM],IC50 [2] [nM],DC50 [3] [nM],(IC50 CDK12 high ATP) to (Degradation DC50 CDK12) ratio [3]
"Fc1cccc(-c2nnc(CNc3nc(N4CCOCC4)nc4c(C(F)(F)F)cnn34)[nH]2)c1 [Example 385, N-{[5-(3-fluorophenyl)-4H-1,2,4-triazol-3-yl]methyl}-2-(morpholin-4-yl)-8-(trifluoromethyl)pyrazolo[1,5-a][1,3,5]triazin-4-amine]",1810,25.9,9.13,31
"Cc1ccnc2[nH]c(CNc3nc(N4CCOCC4)nc4c(C(C)C)cnn34)nc12 [Example 28, N-[(7-methyl-3H-imidazo[4,5-b]pyridin-2-yl)methyl]-2-(morpholin-4-yl)-8-(propan-2-yl)pyrazolo[1,5-a][1,3,5]triazin-4-amine]",6020,39.1,6.5,511
"CN(CC(C)(C)O)c1nc(NCc2nc3c(F)c(F)ccc3[nH]2)n2ncc(Cl)c2n1 [Example 359, 1-[(8-chloro-4-{[(4,5-difluoro-1H-benzimidazol-2-yl)methyl]amino}pyrazolo[1,5-a][1,3,5]triazin-2-yl)(methyl)amino]-2-methylpropan-2-ol]",12400,5.69,4.33,483
"Fc1cc2nc(CNc3nc(N4CCOCC4)nc4c(Br)cnn34)[nH]c2cc1F [Example 341, 8-bromo-N-[(5,6-difluoro-1H-benzimidazol-2-yl)methyl]-2-(morpholin-4-yl)pyrazolo[1,5-a][1,3,5]triazin-4-amine]",9360,< 0.1,3.55,624
"CN1CCN(c2nc(NCc3nc4c(OC(F)(F)F)cccc4[nH]3)n3ncc(Br)c3n2)CC1 [Example 376, 8-bromo-2-(4-methylpiperazin-1-yl)-N-{[4-(trifluoromethoxy)-1H-benzimidazol-2-yl]methyl}pyrazolo[1,5-a][1,3,5]triazin-4-amine]",> 20000,36.8,12.4,>1615
"Fc1ccc2[nH]c(CNc3nc(N4CC5CCC(C4)N5)nc4c(Cl)cnn34)nc2c1F.O=CO [Example 360, formic acid 8-chloro-2-(3,8-diazabicyclo[3.2.1]octan-3-yl)-N-[(4,5-difluoro-1H-benzimidazol-2-yl)methyl]pyrazolo[1,5-a][1,3,5]triazin-4-amine]",12100,2.24,6.45,622
"CC[C@@H](CO)Nc1nc(NCc2nc3ccccc3[nH]2)n2ncc(Br)c2n1 [Example 367, (2S)-2-[(4-{[(1H-benzimidazol-2-yl)methyl]amino}-8-bromopyrazolo[1,5-a][1,3,5]triazin-2-yl)amino]butan-1-ol]",573,31.4,12.7,231
"Fc1cccc2[nH]c(CNc3nc(N4CCOCC4)nc4c(Cl)cnn34)nc12 [Example 361, 8-chloro-N-[(4-fluoro-1H-benzimidazol-2-yl)methyl]-2-(morpholin-4-yl)pyrazolo[1,5-a][1,3,5]triazin-4-amine]",4340,6.73,6.4,224
"CN1CCN(c2nc(NCc3nc4cc(C(F)(F)F)ccc4[nH]3)n3ncc(Br)c3n2)CC1 [Example 344, 8-bromo-2-(4-methylpiperazin-1-yl)-N-{[5-(trifluoromethyl)-1H-benzimidazol-2-yl]methyl}pyrazolo[1,5-a][1,3,5]triazin-4-amine]",12400,2.7,6.69,1251
"Cc1cc2nc(CNc3nc(N4CC5CCC(C4)N5)nc4c(C5CC5)cnn34)[nH]c2cc1C [Example 326, 8-cyclopropyl-2-(3,8-diazabicyclo[3.2.1]octan-3-yl)-N-[(5,6-dimethyl-1H-benzimidazol-2-yl)methyl]pyrazolo[1,5-a][1,5]triazin-4-amine]",4140,1.25,4.77,198
Fc1ccc2[nH]c(CNc3nc(N4CCOCC4)nc4c(Cl)cnn34)nc2c1F [Example 357],11900,4.33,3.9,295
"Brc1cnn2c(NCc3nc4ccccc4[nH]3)nc(N3CC4CCC(C3)O4)nc12 [Example 351, N-[(1H-benzimidazol-2-yl)methyl]-8-bromo-2-(8-oxa-3-azabicyclo[3.2.1]octan-3-yl)pyrazolo[1,5-a][1,3,5]triazin-4-amine]",7390,38.4,24,390
"CN(CC(C)(C)O)c1nc(NCc2nc3cc(F)c(F)cc3[nH]2)n2ncc(C3CC3)c2n1 [Example 319, 1-[(8-cyclopropyl-4-{[(5,6-difluoro-1H-benzimidazol-2-yl)methyl]amino}pyrazolo[1,5-a][1,3,5]triazin-2-yl)(methyl)amino]-2-methylpropan-2-ol]",12100,2.87,3.06,780
"Fc1c(Cl)ccc2[nH]c(CNc3nc(N4CC5CCC(C4)N5)nc4c(Br)cnn34)nc12 [Example 380, 8-bromo-N-[(5-chloro-4-fluoro-1H-benzimidazol-2-yl)methyl]-2-(3,8-diazabicyclo[3.2.1]octan-3-yl)pyrazolo[1,5-a][1,3,5]triazin-4-amine]",9260,1.72,2.32,438
"Fc1cc(F)cc(-c2nnc(CNc3nc(N4CCOCC4)nc4c(C(F)(F)F)cnn34)[nH]2)c1 [Example 386, N-{[5-(3,5-difluorophenyl)-4H-1,2,4-triazol-3-yl]methyl}-2-(morpholin-4-yl)-8-(trifluoromethyl)pyrazolo[1,5-a][1,3,5]triazin-4-amine]",1450,12.5,9.83,12
"CC(C)c1cnn2c(NCc3ncc(-c4ccccc4)[nH]3)nc(N3CCN(C)CC3)nc12 [Example 31, 2-(4-methylpiperazin-1-yl)-N-[(5-phenyl-1H-imidazol-2-yl)methyl]-8-(propan-2-yl)pyrazolo[1,5-a][1,3,5]triazin-4-amine]",17500,21,19.7,689
"Fc1ccc(-c2nnc(CNc3nc(N4CCOCC4)nc4c(Br)cnn34)[nH]2)cc1 [Example 29, 8-bromo-N-{[5-(4-fluorophenyl)-4H-1,2,4-triazol-3-yl]methyl}-2-(morpholin-4-yl)pyrazolo[1,5-a][1,3,5]triazin-4-amine]",3080,170,11.8,310
"CN1CCN(c2nc(NCc3nc4cc(F)c(F)cc4[nH]3)n3ncc(Br)c3n2)CC1 [Example 346, 8-bromo-N-[(5,6-difluoro-1H-benzimidazol-2-yl)methyl]-2-(4-methylpiperazin-1-yl)pyrazolo[1,5-a][1,3,5]triazin-4-amine]",> 20000,2.66,2.35,5220
"Fc1cc2nc(CNc3nc(N4C[C@H]5CC[C@@H](C4)N5)nc4c(C5CC5)cnn34)[nH]c2cc1Cl [Example 328, N-[(6-chloro-5-fluoro-1H-benzimidazol-2-yl)methyl]-8-cyclopropyl-2-[(1R,5S)-3,8-diazabicyclo[3.2.1]octan-3-yl]pyrazolo[1,5-a][1,3,5]triazin-4-amine]",14500,0.901,3.95,419
"CN(CC(C)(C)O)c1nc(NCc2nc3cc(C(F)(F)F)ccc3[nH]2)n2ncc(C3CC3)c2n1 [Example 323, 1-{[8-cyclopropyl-4-({[5-(trifluoromethyl)-1H-benzimidazol-2-yl]methyl}amino)pyrazolo[1,5-a][1,3,5]triazin-2-yl](methyl)amino}-2-methylpropan-2-ol]",13500,5.4,16.9,169
"CN(CC(C)(C)O)c1nc(NCc2nc3c(F)c(Cl)ccc3[nH]2)n2ncc(Br)c2n1 [Example 374, 1-[(8-bromo-4-{[(5-chloro-4-fluoro-1H-benzimidazol-2-yl)methyl]amino}pyrazolo[1,5-a][1,3,5]triazin-2-yl)(methyl)amino]-2-methylpropan-2-ol]",3120,2.8,1.81,85
